These are literature values, as cited in US8124611B2, “Inhibitors of the mutant form of kit” (Novartis AG, priority 2003, dated 2012).

In the data set the target is KIT D816V mutation (Homo sapiens, UniProt P10721, D816V). The note with it: D816V mutation commonly found in systemic mastocytosis.
KIT D816V mutation, sequence (P10721 26-976 D816V): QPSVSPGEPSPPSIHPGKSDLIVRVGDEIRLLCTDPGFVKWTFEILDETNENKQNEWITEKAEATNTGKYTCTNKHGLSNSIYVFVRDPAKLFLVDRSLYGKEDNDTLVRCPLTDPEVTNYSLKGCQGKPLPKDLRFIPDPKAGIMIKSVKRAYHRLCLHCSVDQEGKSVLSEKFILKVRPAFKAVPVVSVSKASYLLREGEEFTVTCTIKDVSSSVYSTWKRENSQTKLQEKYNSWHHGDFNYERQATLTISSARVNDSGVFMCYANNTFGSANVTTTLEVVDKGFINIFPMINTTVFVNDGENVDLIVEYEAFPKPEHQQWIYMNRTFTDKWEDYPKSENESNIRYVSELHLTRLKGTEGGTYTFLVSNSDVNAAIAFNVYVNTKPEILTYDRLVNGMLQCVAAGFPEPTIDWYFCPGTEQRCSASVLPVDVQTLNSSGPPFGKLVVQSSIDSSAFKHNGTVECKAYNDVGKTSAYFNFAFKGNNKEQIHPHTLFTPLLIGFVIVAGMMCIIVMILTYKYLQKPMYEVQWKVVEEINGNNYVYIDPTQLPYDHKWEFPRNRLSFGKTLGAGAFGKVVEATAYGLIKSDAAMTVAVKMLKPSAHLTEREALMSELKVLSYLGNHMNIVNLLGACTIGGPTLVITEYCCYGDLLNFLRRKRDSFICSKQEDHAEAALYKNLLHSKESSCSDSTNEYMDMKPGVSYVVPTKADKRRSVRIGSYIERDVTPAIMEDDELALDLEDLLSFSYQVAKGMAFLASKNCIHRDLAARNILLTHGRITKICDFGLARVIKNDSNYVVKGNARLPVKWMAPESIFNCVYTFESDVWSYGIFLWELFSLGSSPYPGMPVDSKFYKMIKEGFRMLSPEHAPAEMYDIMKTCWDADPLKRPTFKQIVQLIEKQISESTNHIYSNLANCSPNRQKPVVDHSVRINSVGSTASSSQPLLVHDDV

`Cc1ccc(NC(=O)c2ccc(CN3CCN(C)CC3)cc2)cc1Nc1nccc(-c2cccnc2)n1` [Imatinib]: the “activity against mutant forms of KIT” value was “inactive or significantly less active”.
